Legend:
S6K1 = S6K1 (Homo sapiens (Human), UniProt P23443); assay: Kinase profiling, 33P ATP filter binding assay; type: biochemical; settings: 1 micromolar inhibitor concentration, read-out: percentage inhibition
PLK1 = PLK1 (Homo sapiens (Human), UniProt P53350); assay: Kinase profiling, 33P ATP filter binding assay; type: biochemical; settings: 1 micromolar inhibitor concentration, read-out: percentage inhibition
SIK2 = SIK2 (Homo sapiens (Human), UniProt Q9H0K1); assay: Kinase profiling, 33P ATP filter binding assay; type: biochemical; settings: 1 micromolar inhibitor concentration, read-out: percentage inhibition
SIK2, sequence (Q9H0K1 whole entry, species assumed): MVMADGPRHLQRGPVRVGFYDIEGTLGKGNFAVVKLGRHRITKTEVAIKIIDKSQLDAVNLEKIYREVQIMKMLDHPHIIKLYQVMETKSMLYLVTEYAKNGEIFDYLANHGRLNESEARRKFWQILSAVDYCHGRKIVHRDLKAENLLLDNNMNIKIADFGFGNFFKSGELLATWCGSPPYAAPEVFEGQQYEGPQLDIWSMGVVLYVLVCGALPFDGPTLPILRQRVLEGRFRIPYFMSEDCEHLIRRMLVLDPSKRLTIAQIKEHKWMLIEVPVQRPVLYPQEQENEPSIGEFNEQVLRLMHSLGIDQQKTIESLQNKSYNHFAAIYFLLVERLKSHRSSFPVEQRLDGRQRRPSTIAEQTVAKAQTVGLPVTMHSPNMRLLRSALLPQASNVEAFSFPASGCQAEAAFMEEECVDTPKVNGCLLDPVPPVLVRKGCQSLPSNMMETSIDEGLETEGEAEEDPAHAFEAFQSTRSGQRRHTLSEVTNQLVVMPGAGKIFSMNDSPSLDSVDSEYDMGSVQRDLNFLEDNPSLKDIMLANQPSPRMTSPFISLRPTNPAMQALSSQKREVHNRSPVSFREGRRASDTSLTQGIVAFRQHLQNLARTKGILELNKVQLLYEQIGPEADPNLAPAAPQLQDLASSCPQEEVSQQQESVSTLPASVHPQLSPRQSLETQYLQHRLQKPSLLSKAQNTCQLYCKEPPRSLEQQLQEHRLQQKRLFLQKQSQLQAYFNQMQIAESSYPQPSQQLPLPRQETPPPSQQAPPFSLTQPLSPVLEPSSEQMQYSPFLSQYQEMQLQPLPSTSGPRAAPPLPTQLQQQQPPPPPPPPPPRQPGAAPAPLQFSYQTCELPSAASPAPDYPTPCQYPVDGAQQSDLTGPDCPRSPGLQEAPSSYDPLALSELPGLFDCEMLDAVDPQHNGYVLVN

[1] = tested on: tau/MAPT phosphorylation in TS21 neurons; assay: Tau/MAPT phosphorylation in TS21 neuronal cultures, Western blotting; type: cell-based, human; settings: TS21 neurons
Experimental: (§1) Overexpression of DYRK1A in DS is thought to account for increased tau phosphorylation by GSK3β and the increase in DYRK1A positive neurofibrillary tangles (NFTs) in the brains of people with DS and AD. Therefore therapeutic inhibition of DYRK1A activity in DS and AD may delay the progression of neurodegeneration in DS and AD. The following experiment on reduction of tau phosphorylation by inhibition of DYRK1A by inhibitor 4-93 was performed as described in the literature (Shi, Y. et al. A human stem cell model of early Alzheimer's disease pathology in Down syndrome. Sci. Transl. Med. 4, 124ra29 (2012)).
(§2) Neuronal cultures at day 40 were treated with DYRK1A inhibitors and control compounds for 10 days. Total protein was extracted and total tau and phosphorylated tau/MAPT was quantified by Western blotting using antibodies to total tau and a number of phospho-tau epitopes.

[2] = tested on: tau/MAPT phosphorylation in control neurons; assay: Tau/MAPT phosphorylation in control neurons, Western blotting; type: cell-based, human; settings: treated for 10 days, compared to DMSO treated controls
Experimental: as §1, §2

MLK3 = MLK3 (Homo sapiens (Human), UniProt Q16584); assay: Kinase profiling, 33P ATP filter binding assay; type: biochemical; settings: 1 micromolar inhibitor concentration, read-out: percentage inhibition
MLK3, sequence (Q16584 whole entry, species assumed): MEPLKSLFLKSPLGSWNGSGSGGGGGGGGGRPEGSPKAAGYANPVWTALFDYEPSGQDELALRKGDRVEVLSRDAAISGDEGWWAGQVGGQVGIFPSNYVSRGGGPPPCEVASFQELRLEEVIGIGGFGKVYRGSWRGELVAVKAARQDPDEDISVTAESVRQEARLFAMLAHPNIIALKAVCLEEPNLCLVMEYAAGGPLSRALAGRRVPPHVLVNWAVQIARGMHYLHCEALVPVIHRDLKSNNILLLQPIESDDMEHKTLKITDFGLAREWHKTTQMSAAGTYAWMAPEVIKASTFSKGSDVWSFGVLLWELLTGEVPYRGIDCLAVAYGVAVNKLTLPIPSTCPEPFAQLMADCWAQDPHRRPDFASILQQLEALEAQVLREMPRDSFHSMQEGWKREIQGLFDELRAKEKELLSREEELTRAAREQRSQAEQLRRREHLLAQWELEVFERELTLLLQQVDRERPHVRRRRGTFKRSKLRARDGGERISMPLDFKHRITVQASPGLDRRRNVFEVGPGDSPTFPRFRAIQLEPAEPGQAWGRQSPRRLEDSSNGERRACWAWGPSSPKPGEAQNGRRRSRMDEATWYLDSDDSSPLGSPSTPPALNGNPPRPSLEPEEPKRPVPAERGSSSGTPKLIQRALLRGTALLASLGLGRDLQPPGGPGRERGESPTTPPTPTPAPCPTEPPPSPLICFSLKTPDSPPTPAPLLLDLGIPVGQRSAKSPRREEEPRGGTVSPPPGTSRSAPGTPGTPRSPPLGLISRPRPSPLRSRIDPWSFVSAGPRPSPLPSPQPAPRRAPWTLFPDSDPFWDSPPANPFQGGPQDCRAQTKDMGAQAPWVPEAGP

DAPK1 = DAPK1 (Homo sapiens (Human), UniProt P53355); assay: Kinase profiling, 33P ATP filter binding assay; type: biochemical; settings: 1 micromolar inhibitor concentration, read-out: percentage inhibition
DAPK1, sequence (P53355 whole entry, species assumed): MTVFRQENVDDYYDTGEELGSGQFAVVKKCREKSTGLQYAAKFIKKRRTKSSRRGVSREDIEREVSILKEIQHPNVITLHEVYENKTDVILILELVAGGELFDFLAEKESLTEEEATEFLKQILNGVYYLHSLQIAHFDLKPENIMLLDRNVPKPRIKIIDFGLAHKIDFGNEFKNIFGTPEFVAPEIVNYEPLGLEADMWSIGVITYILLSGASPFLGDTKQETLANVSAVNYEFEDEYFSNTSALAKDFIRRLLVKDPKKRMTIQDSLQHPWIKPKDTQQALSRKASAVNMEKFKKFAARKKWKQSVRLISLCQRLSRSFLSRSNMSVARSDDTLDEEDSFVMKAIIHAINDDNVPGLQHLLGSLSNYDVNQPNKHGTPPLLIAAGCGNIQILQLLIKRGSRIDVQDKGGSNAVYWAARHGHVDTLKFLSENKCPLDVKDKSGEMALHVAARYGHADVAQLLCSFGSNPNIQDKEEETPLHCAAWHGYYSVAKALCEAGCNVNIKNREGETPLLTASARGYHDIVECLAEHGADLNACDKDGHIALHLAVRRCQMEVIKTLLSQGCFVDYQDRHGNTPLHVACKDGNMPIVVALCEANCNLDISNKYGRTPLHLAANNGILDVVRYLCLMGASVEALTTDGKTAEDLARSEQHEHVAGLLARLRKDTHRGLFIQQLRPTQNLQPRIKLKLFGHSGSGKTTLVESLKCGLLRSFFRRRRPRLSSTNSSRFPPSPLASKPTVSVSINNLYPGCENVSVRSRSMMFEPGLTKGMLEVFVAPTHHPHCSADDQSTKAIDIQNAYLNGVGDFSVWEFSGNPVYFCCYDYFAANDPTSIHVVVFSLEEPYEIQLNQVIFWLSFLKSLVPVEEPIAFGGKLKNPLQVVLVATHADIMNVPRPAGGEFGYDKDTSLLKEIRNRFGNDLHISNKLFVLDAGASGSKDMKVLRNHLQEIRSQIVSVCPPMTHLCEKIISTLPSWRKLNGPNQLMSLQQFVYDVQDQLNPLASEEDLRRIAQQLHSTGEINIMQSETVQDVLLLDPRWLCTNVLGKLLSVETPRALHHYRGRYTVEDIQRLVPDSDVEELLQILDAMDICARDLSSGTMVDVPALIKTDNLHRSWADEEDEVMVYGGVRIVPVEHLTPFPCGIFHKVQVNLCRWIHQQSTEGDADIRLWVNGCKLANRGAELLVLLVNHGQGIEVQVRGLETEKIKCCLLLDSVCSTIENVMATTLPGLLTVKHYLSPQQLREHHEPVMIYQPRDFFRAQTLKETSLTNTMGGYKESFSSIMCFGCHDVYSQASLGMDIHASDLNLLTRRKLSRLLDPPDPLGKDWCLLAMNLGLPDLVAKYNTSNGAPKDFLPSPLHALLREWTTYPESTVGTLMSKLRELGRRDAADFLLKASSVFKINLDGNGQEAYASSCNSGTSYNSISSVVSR

CLK2 = CLK2 (Homo sapiens (Human), UniProt P49760); assay: Kinase profiling, 33P ATP filter binding assay; type: biochemical; settings: 1 micromolar inhibitor concentration, read-out: percentage inhibition
CLK2, sequence (P49760 whole entry, species assumed): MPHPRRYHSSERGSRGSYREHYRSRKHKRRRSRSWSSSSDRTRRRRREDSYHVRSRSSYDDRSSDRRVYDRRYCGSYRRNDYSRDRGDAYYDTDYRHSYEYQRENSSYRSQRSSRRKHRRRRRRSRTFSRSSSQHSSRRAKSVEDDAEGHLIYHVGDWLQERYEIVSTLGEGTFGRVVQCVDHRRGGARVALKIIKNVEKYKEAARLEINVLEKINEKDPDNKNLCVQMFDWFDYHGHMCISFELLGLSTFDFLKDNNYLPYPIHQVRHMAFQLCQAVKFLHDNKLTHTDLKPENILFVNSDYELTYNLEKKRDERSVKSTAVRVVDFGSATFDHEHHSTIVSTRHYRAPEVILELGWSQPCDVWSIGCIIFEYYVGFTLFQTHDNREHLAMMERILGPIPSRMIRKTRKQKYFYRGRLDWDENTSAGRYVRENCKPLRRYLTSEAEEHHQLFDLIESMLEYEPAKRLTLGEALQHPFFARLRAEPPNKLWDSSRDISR

GSK3b = GSK3b (Homo sapiens (Human), UniProt P49841); assay: Kinase profiling, 33P ATP filter binding assay; type: biochemical; settings: 1 micromolar inhibitor concentration, read-out: percentage inhibition
PINK = settings: 1 micromolar inhibitor concentration
Experimental: (§3) The determination of protein kinase inhibition was performed at the International Centre for Kinase Profiling at the University of Dundee, UK. […] The ATP concentrations were at or below the calculated Km for ATP for each particular kinase.

AMPK (hum) = settings: 1 micromolar inhibitor concentration
Excerpt: The ATP concentrations were at or below the calculated Km for ATP for each particular kinase.

ROCK 2 = settings: 1 micromolar inhibitor concentration
Experimental: as §3

PHK = settings: 1 micromolar inhibitor concentration
Experimental: as §3

[3] = ten days treatment, vs DMSO treated controls or DAPT treated positive controls
[4] = treated for 10 days, normalised to β-actin, vs DMSO treated controls

S6K1, sequence (P23443 whole entry, species assumed): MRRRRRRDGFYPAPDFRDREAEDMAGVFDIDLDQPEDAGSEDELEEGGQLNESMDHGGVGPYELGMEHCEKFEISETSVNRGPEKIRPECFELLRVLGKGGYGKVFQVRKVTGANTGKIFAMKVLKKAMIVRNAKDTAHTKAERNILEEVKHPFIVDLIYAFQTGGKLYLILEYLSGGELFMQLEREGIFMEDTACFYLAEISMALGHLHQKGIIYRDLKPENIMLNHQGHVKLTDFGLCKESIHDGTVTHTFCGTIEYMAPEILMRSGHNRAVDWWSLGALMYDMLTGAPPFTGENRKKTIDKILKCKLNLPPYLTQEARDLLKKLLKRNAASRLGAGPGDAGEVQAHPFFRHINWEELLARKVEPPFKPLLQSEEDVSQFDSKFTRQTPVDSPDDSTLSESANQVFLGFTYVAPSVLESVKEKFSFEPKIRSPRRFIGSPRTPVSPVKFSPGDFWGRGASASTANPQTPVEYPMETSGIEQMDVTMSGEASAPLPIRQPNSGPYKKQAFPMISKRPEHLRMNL
PLK1, sequence (P53350 whole entry, species assumed): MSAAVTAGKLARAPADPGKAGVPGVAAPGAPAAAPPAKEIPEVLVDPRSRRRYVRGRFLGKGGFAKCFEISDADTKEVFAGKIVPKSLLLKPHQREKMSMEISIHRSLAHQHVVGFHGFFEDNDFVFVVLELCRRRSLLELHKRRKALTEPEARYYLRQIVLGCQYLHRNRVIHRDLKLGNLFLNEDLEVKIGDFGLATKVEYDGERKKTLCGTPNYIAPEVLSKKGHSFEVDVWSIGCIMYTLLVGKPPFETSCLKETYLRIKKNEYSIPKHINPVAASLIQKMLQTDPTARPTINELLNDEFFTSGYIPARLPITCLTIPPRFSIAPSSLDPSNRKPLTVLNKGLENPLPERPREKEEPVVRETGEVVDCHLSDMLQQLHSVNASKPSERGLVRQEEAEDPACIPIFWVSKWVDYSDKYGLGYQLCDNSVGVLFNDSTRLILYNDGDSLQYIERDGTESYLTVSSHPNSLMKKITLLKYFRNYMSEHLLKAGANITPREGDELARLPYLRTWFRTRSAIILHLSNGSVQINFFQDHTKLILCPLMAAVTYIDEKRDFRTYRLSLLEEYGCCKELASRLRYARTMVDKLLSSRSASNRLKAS

SMILES: COc1ccc2sc(-c3cncc(NC(C)=O)c3)nc2c1 [4-93, N-(5-(5-Methoxybenzo[d]thiazol-2-yl)pyridin-3-yl)acetamide]
- inhibition at 1 µM (S6K1): 0%
- inhibition at 1 µM (PLK1): 0%
- inhibition at 1 µM (SIK2): 0%
- phosphorylation of Ser 214 normalised to total tau levels ([1]; ten days treatment): unaffected
- phosphorylated tau/MAPT at Ser 396 normalised to total tau levels [1, 3]: significantly lower
- phosphorylated tau/MAPT at Ser 404 normalised to total tau levels [1, 3]: significantly lower
- tau phosphorylation at Ser 396 [1, 4]: significantly reduced
- tau phosphorylation at Ser 404 [1, 4]: significantly reduced
- phosphorylation at Ser 214 ([1]; treated for 10 days, site not phosphorylated by DYRK1A): do not affect
- tau/MAPT phosphorylation at Ser 396 [2]: slight increase
- tau/MAPT phosphorylation at Ser 404 [2]: slight increase
- inhibition at 1 µM (MLK3): 0%
- inhibition at 1 µM (DAPK1): 0%

SMILES: CS(=O)(=O)Nc1cncc(-c2nc3cc(O)ccc3s2)c1 [4-99, N-(5-(5-Hydroxybenzo[d]thiazol-2-yl)pyridin-3-yl)methanesulfonamide]
- inhibition at 1 µM (S6K1): 0%
- inhibition at 1 µM (CLK2): 44%
- inhibition at 1 µM (GSK3b): 0%
- inhibition at 1 µM (PLK1): 0%
- inhibition at 1 µM (SIK2): 0%
- inhibition at 1 µM (MLK3): 0%
- percentage inhibition (PINK): 0%
- percentage inhibition (AMPK (hum)): 0%
- inhibition at 1 µM (DAPK1): 0%
- percentage inhibition (ROCK 2): 0%
- percentage inhibition (PHK): 0%

From US10927106B2, “Benzothiazole derivatives as DYRK1 inhibitors” (PHARMASUM THERAPEUTICS AS, priority 2017, dated 2021)
